Reference: US20140087451A1, “ACOUSTIC WAVE (AW) SENSING DEVICES USING LIVE CELLS” (University of Massachusetts, priority 2010, published 2014)

Assays:
[1] = tested on: Human Microvascular Endothelial Cells derived from Lung (HMVEC-L); assay: Surface acoustic wave (SAW) device, 21 MHz, frequency and attenuation response of attached cells; format: cell-based; settings: for sensitivity (frequency shift normalized to operating frequency and number of live attached cells): SAW 21 MHz
Procedure: An AT cut quartz wafer was prepared with electrodes for a surface acoustic wave (SAW) patterned on one side. The transmitting and receiving electrodes were composed of interdigitated (IDT) electrodes fabricated by lift off of gold deposited by electron beam evaporation. The IDTs were composed of 120 pairs of electrode fingers. This spacing corresponds to the wavelength of a SAW of 21 MHz. The sensing area between the IDTs was 20×8 mm. A 2 μm thick layer of poly(methylmethacrylate) (PMMA) was spin coated onto the surface of the SAW to serve as an insulating layer for the IDTs as well as a waveguide for the Love waves generated by the transmitting IDT.
The SAW was connected to an Agilent E5061B network analyzer, set up for transmission measurements (s12). Before liquid was added, the resonant frequency of 21 MHz was confirmed. Using Labview software, the resonant frequency and attenuation of the SAW was measured once per second during an experiment. A drop of cell media containing cells was placed in the sensing area allowing cells to attach, as described below.
The Human Microvascular Endothelial Cells derived from Lung (HMVEC-L) cell line was obtained from Lonza (Basel, Switzerland) and stock cultures were established and grown in media recommended by the manufacturers, at 37° C. in a humidity controlled incubator with 5% CO2, unless otherwise noted. The media used was EBM™-2, (CC-3156) (Lonza Basel, Switzerland) with EGM™-2-MV BulletKit™ (CC-3202) (Lonza Basel, Switzerland) containing hEGF, Hydrocortisone, GA-1000 (Gentamicin, Amphotericin-B), VEGE, hFGF-B, R3-IGF-1 and 5% FBS. The HMVEC-L cells were grown in 25 cm^2 rectangular canted neck cell culture flasks with vented caps (Corning Life Science, Lowell, Mass.), and re-fed every three days and passaged once a week using a 0.05% solution of trypsin:EGTA (Invitrogen, Carlsbad, Calif.) as stock cultures.
Two different treatments of the cells on the SAW device were carried out in separate experiments. […] All the solutions were stored at 4° C. in a refrigerator. Prior to cell plating onto the SAW device, the SAW device was cleaned by rinsing with distilled water and then UV sterilized for 30 min. After sterilization and further washing with water and Phosphate Buffered Saline (PBS), 50 μl of medium containing 20,000 HMVEC-L cells was added to the sensing area of the SAW device, which had been previously placed within a 150 mm diameter Petri dish. Smaller Petri dishes filled with reservoirs of media were placed around the central SAW device, in order to provide additional surface area for evaporation of water. The purpose of this arrangement, large volume and area reservoirs of iso-osmotic pressure media in the Petri dishes, was to prevent evaporative loss of water from the small volume of media covering the cells in the sensing area of the SAW device. The SAW device in the large covered Petri dish was located on the bench top in ambient air. The Petri dish cover was removed and cells were plated in media onto the sensing area surface of the SAW device and the HMVEC-L cells in the covered Petri dish were allowed to attach to the sensing area SAW device surface for 18 hr. Then, the media was changed with 50 μl fresh medium.

HMVEC-L cells = assay: Commercial quartz crystal microbalance (QCM), 10 MHz fundamental frequency, equivalent prior experiments; format: cell-based, human
[2] = tested on: Human Mammary Epithelial Cells (HMECs); assay: QCM (10 MHz) fundamental and third overtone frequency shift with attached cells treated with growth factor; format: cell-based; settings: bFGF 12.5 ng/ml final; 20,000 HMEC cells on 10 MHz QCM; 300 min after addition; FIG. 6
Excerpt: An AT cut 0.538″ diameter quartz disk with 100 nm thick gold electrodes was used for the piezoelectric medium in this experiment. A polydimethylsiloxane (PDMS) tube with an outer diameter of 0.4″ and an inner diameter of 0.3″ and 0.3″ high was attached to one side of the quartz disk for use as a reservoir for cell media. The quartz crystal was mounted in a HC35/U holder with silver epoxy bonding between the electrodes and the gold electrodes on the crystal.
The oscillator circuitry is a Colpitts oscillator, shown in FIG. 7, modified to enable the quartz to undergo shear wave oscillations under a liquid load. The thickness of the crystal is such that an unloaded crystal oscillating in air would operate at 10 MHz. The Colpitts oscillator was tuned to only amplify frequencies in the range of 10 MHz. A second class C amplifier operating as a frequency multiplier was connected to the ungrounded electrode of the quartz crystal. The multiplier was tuned to capture the crystal's third harmonic oscillations. The output of the multiplier and the voltage at the crystal were connected to the inputs of a two channel oscilloscope. The waveforms were digitally captured using Labview software and passed through a fast Fourier transform. The frequency of the signals were captured and recorded at one minute intervals, prior to and following addition of cells to the crystal surface. […]

HMECs = settings: bFGF added to HMECs; cited from earlier work
[3] = tested on: its specific growth factor receptor; settings: stated as 'has been shown'; cited from earlier work

In the case of trypsin, the “abrupt increase in frequency” value ([1]; 0.05% trypsin:EGTA, cell release, 20,000 HMVEC-L cells on SAW sensing area, FIG. 12) is reported as “about 60 kHz”, the “sensitivity (frequency shift normalized to operating frequency and number of live attached cells)” value ([1]; Trypsin enzymatic removal experiment) is reported as 3.75×10^−7 /cell and the equivalent sensitivity (HMVEC-L cells; trypsinization experiment) is reported as 1×10^−8 /cell.
With [N-]=[N+]=[N-] [sodium azide, Sodium azide] the “change in Attenuation values” ([1]; 50 mM sodium azide final, 20,000 HMVEC-L cells on SAW device, FIG. 11) was “approximately 8 dBm”, the increase in frequency ([1]; 50 mM sodium azide final, 20,000 HMVEC-L cells on SAW sensing area, 4 hr after addition, FIG. 11) was “about 17 kHz” and the “sensitivity (frequency shift normalized to operating frequency and number of live attached cells)” value ([1]; 50 mM sodium azide experiment) was 5.6×10^−8 /cell. The equivalent sensitivity (HMVEC-L cells; 50 mM azide experiment) was 4.1×10^−9 /cell.
In the case of “bFGF: Basic human Fibroblast Growth Factor from Sigma, reconstituted in 50 mM Tris-HCl pH7.5”, the “frequency shift of third overtone compared to the fundamental in response to the growth factor” value [2] is given as “larger frequency shift”, the “lag time of proliferative response (increase in thymidine incorporation)” value (HMECs) is given as “about 21 hr” and the “time to bind and activate its specific growth factor receptor” value [3] is given as at most 8 min.
